In US11993588B2, “Crystalline forms of a MAGL inhibitor” (H. Lundbeck A/S, priority 2016, dated 2024):

Assays:
Type in all cases: physicochemical
[1] = Solubility measurement in t-BME; settings: organic solvent or mixture, thermodynamic from solid; solvent addition method, 10 mg sample, up to 100 mL t-BME
Experimental: Solubility of Form 1 of Compound 2 was measured using the solvent addition method as described in Example 14 on 10 mg of sample. t-BME was added in 1 mL aliquots up to 10 mL, then in 5 mL and 10 mL aliquots up to a total volume of 100 mL.

[2] = Solvent solubility screen for Compound 2; settings: amorphous HCl salt; for solubility: 40 °C, thermodynamic from solid, read-out: Approximate Solubility
Experimental: Approximately 10 mg of amorphous HCl salt (from 500 mg batch) was placed in each of 28 vials and 5 volume aliquots of the appropriate solvent systems were added to the appropriate vial. Between each addition, the mixture was checked for dissolution and if no dissolution was apparent, the mixture was heated to ca. 40° C. and checked again. This procedure was continued until dissolution was observed or 100 volumes of solvent had been added. Then a further addition of 100 volumes was added to samples which had not dissolved. If 200 volumes of solvent were added without dissolution of the material, solubility was calculated to be below this point.

7-day stability testing = test: 7-day stability testing
Experimental: (§1) Form 2 of Compound 2 was scaled up in two solvents. Material underwent 7-day stability testing and/or aqueous solubility assessment. The 7-day stability testing was conducted as follows. Material was exposed to environments of 40° C./75% RH, ambient light and 80° C. for 7 days and the resulting solids analysed by XRPD to determine if any changes had occurred, and by HPLC to determine purity. The aqueous solubility assessment was conducted as follows. A slurry was created in deionised water (5.1 mg of Form 2 and 300 μL of water) and shaken for ca. 24 hours at ambient temperature (ca. 22° C.). The initial pH and final pH were measured. The resulting mixture was then isolated by centrifuge filtration, and the solution obtained analysed by HPLC to calculate the concentration of material dissolved. Remaining solid was analysed by XRPD to determine if any changes had occurred on slurrying.

[3] = Dynamic vapor sorption (DVS)
Experimental: Approximately 10 mg of sample was placed into a mesh vapour sorption balance pan and loaded into a DVS-1 dynamic vapour sorption balance by Surface Measurement Systems. The sample was subjected to a ramping profile from 40-90% relative humidity (RH) at 10% increments, maintaining the sample at each step until a stable weight had been achieved (99.5% step completion). After completion of the sorption cycle, the sample was dried using the same procedure to 0% RH and then a second sorption cycle back to 40% RH. The weight changes during the sorption/desorption cycles were plotted, allowing for the hygroscopic nature of the sample to be determined. XRPD analysis was then carried out on any solid retained.

[4] = Gravimetric vapor sorption (GVS); settings: for weight uptake / hygroscopic nature: GVS; for weight uptake: at 90% RH; for Post-GVS analysis by XRPD (form change): after GVS sorption/desorption cycle
Experimental: Approximately 10 mg of sample was placed into a mesh vapour sorption balance pan and loaded into an IGASorp Moisture Sorption Analyser balance by Hiden Analytical. The sample was subjected to a ramping profile from 40-90% relative humidity (RH) at 10% increments, maintaining the sample at each step until a stable weight had been achieved (98% step completion). After completion of the sorption cycle, the sample was dried using the same procedure to 0% RH, and finally taken back to the starting point of 40% RH. The weight change during the sorption/desorption cycles were plotted, allowing for the hygroscopic nature of the sample to be determined.

[5] = Aqueous solubility assessment
Experimental: as §1

[6] = Competitive slurrying of Form 1 and 2 mixtures; settings: 50:50 Form 1 and 2 slurries in acetone, ethyl acetate, methylethyl ketone, 2-propanol; 60° C. and ambient, ca. 48 hours
Experimental: Four solvents (acetone, ethyl acetate, methylethyl ketone, and 2-propanol) were chosen for competitive slurrying. Saturated solutions were prepared of Form 1 in the chosen solvents and added to 20 mg of 50:50 Form 1 and 2 mixtures to create slurries. The slurries were shaken at 60° C. and ambient temperature for ca. 48 hours. Solids were then isolated by centrifuge filtration and analysed by XRPD.

[7] = Heating to 140° C., cooling and XRPD; settings: heated to 140° C. and allowed to cool
Experimental: Material from Compound 2 (Form 1) was also heated to 140° C. and allowed to cool. The material was analysed by XRPD (FIG. 12), to determine any form change, which could be consistent with a solid-solid transition.

[8] = listed as Form 1 of Compound 2, mono-HCl salt
[9] = listed as Form 2 (Compound 2), mono-HCl salt

Structure (SMILES): Cl.O=C(OC(C(F)(F)F)C(F)(F)F)N1CCN(Cc2ccc(C(F)(F)F)cc2N2CCCC2)CC1 [Compound 2, 1,1,1,3,3,3-hexafluoropropan-2-yl 4-(2-(pyrrolidin-1-yl)-4-(trifluoromethyl)benzyl)piperazine-1-carboxylate mono-HCl salt]
- solubility [1]: < 0.1 mg/mL
- solubility ([2]; aqueous with cosolvent or surfactant or cyclodextrin, 2-Propanol:water (50%), partial dissolution): < 5 mg/mL
- solubility ([2]; aqueous with cosolvent or surfactant or cyclodextrin, Acetone:water (50%), partial dissolution): < 5 mg/mL
- solubility ([2]; aqueous with cosolvent or surfactant or cyclodextrin, Methanol:water (50%)): < 5 mg/mL
- solubility ([2]; organic solvent or mixture, 1,4-Dioxane): 5 mg/mL
- solubility ([2]; organic solvent or mixture, 1-Butanol): < 5 mg/mL
- solubility ([2]; organic solvent or mixture, 2-Ethoxyethanol, precipitated overnight): 49 mg/mL
- solubility ([2]; organic solvent or mixture, 2-Methyl tetrahydrofuran): < 5 mg/mL
- solubility ([2]; organic solvent or mixture, 2-Propanol): 5 mg/mL
- solubility ([2]; organic solvent or mixture, Acetone): 40 mg/mL
- solubility ([2]; organic solvent or mixture, Acetonitrile): 40 mg/mL
- solubility ([2]; organic solvent or mixture, Anisole, partial dissolution): < 5 mg/mL
- solubility ([2]; organic solvent or mixture, Dichloromethane, precipitated overnight): 70 mg/mL
- solubility ([2]; organic solvent or mixture, Diisopropyl Ether): < 5 mg/mL
- solubility ([2]; organic solvent or mixture, Dimethylacetamide): 99 mg/mL
- solubility ([2]; organic solvent or mixture, Dimethylformamide): 99 mg/mL
- solubility ([2]; organic solvent or mixture, Dimethylsulfoxide): 66 mg/mL
- solubility ([2]; organic solvent or mixture, Ethanol): 33 mg/mL
- solubility ([2]; organic solvent or mixture, Ethyl acetate): 5 mg/mL
- solubility ([2]; organic solvent or mixture, Isopropyl acetate): < 5 mg/mL
- solubility ([2]; organic solvent or mixture, Methanol): 101 mg/mL
- solubility ([2]; organic solvent or mixture, Methyl isobutyl ketone, partial dissolution): < 5 mg/mL
- solubility ([2]; organic solvent or mixture, Methylethyl ketone): 28 mg/mL
- solubility ([2]; organic solvent or mixture, N-Methyl-2-pyrrolidone): 101 mg/mL
- solubility ([2]; organic solvent or mixture, Tetrahydrofuran, precipitated overnight): 25 mg/mL
- solubility ([2]; organic solvent or mixture, Toluene): < 5 mg/mL
- solubility ([2]; organic solvent or mixture, tert-Amyl alcohol): < 5 mg/mL
- solubility ([2]; organic solvent or mixture, tert-Butylmethyl ether): < 5 mg/mL
- solubility ([2]; Water): < 5 mg/mL
- concentration at which dissolution was initially observed ([2]; Acetone:water (50%), precipitated after ca. 2 h): 18000 µg/mL
- HPLC purity after stability testing (7-day stability testing; 40° C./75% RH for 7 days): > 99.9%
- solid form by XRPD after stability testing (7-day stability testing; 40° C./75% RH, ambient light and 80° C. for 7 days): remain the same form
- HPLC purity after stability testing (7-day stability testing; 80° C. for 7 days): 99.9%
- HPLC purity after stability testing (7-day stability testing; ambient light / ambient conditions for 7 days): > 99.9%
- hygroscopic nature ([3]; DVS): non-hygroscopic
- total uptake ([3]; DVS, at 90% RH): < 0.12%
- Post-DVS XRPD analysis (form change) ([3]; after DVS cycle): remain the same crystalline form
- weight uptake [4, 8]: < 0.1%
- weight uptake [4, 9]: < 0.08%
- hygroscopic nature [4, 8]: very non-hygroscopic
- hygroscopic nature [4, 9]: (very) non-hygroscopic
- Post-GVS analysis by XRPD (form change) [4, 8]: remain unchanged
- Post-GVS analysis by XRPD (form change) [4, 9]: remained the same crystalline form
- dissociation of the salt in water [5, 8]: dissociates readily to the free base
- dissociation of the salt in water [5, 9]: dissociate to the free base
- solubility at 24 h ([5]; thermodynamic from solid, slurry in deionised water, ca. 24 hours, ambient (ca. 22° C.), initial pH 1.87, final pH 1.68): 0.5 mg/mL
- relative thermodynamic stability of polymorphs [6]: thermodynamically more stable than Form 1
- form change by XRPD after heating [7]: remain unchanged
